Source: patent US20250154686A1, “COMPOUND LIBRARY” (CHUGAI SEIYAKU KABUSHIKI KAISHA, priority 2021, published 2025)

Target: T1, Bcl-2 protein (Recombinant Human Bcl-2 Protein) (Homo sapiens, UniProt P10415)
T1 construct: purchased Novus Biologicals NBP2-34889
Assay: AS-MS evaluation of binding of the Example 4 mixture library (1200 compounds/well) to Bcl-2, ASMS ratio (%)
Summary of the method: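 A pooled 1200-compound mixture (20 nM each final) was incubated with 20 μM recombinant human Bcl-2 in pH 7.4 Tris-HCl buffer with NaCl, Tween-20 and DTT for 1 h at 23° C. in the dark. Bound ligands were separated by spin-column SEC and measured by reverse-phase LC/MS; ASMS ratio (%) was calculated against protein-free unfiltered standard and protein-free SEC blank.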

[1] = replicate n = 1, mixture library, value belongs to the MS peak assigned to the compound
[2] = replicate n = 2, mixture library, value belongs to the MS peak assigned to the compound
[3] = AS-MS, Example 4 mixture library, Bcl-2, replicate n = 1
[4] = AS-MS, Example 4 mixture library, Bcl-2, replicate n = 2
[5] = AS-MS, mixture of 1200 compounds/well, Bcl-2 protein, replicate n = 2

T1 sequence (P10415 whole entry): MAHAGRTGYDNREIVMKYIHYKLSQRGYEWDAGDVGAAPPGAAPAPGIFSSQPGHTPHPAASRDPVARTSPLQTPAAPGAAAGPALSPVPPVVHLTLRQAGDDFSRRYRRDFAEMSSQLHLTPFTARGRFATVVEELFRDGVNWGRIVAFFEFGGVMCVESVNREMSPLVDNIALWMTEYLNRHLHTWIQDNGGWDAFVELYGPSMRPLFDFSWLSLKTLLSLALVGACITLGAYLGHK

ASMS ratio (%) n = 1 [1] [%]	ASMS ratio (%) n = 2 [2] [%]	ASMS ratio (%) n = 1 [3] [%]	ASMS ratio (%) n = 2 [4] [%]	further results	SMILES
0.0	0.0	–	–	–	CCOc1cccc(-c2cc(CN3CCN(c4ccc(C(=O)NS(=O)(=O)C(C)(C)C)cc4)CC3)cc(OC(C)C)c2)c1 [Compound B2L057-01, N-tert-Butylsulfonyl-4-[4-[3-(3-ethoxyphenyl)-5-propan-2-yloxyphenylmethyl]piperazin-1-yl]benzamide]
–	–	3.8	0.3	–	CCOc1cccc(-c2ccc(CN3CCN(c4ccc(C(=O)NS(=O)(=O)c5ccc(NCCSc6ccccc6)c(C(F)(F)F)c5)cc4)CC3)c3ccccc23)c1 [Compound B2R065-01, 4-[4-[[4-(3-Ethoxyphenyl)naphthalen-1-yl]methyl]piperazin-1-yl]-N-[4-(2-phenylsulfanylethylamino)-3-(trifluoromethyl)phenyl]sulfonylbenzamide]
0.0	0.0	–	–	–	CCOc1cccc(-c2cc(OC)c(CN3CCN(c4ccc(C(=O)NS(=O)(=O)C(C)(C)C)cc4)CC3)c(OC)c2)c1 [Compound B2L059-01, N-tert-Butylsulfonyl-4-[4-[[4-(3-ethoxyphenyl)-2,6-dimethoxyphenyl]methyl]piperazin-1-yl]benzamide]
–	–	0.0	0.0	–	CCOc1cccc(-c2ccc(C(C)N3CCN(c4ccc(C(=O)NS(=O)(=O)CCC(F)(F)F)cc4)CC3)cc2)c1 (centres unmarked) [Compound B2N097-01, 4-[4-[1-[4-(3-Ethoxyphenyl)phenyl]ethyl]piperazin-1-yl]-N-(3,3,3-trifluoropropylsulfonyl)benzamide]
–	–	0.0	0.0	–	CCOc1cccc(-c2ccc(CN3CCN(c4ccc(C(=O)NS(=O)(=O)CCC(F)(F)F)cc4)CC3)cc2C)c1 [Compound B2N047-01, 4-[4-[[4-(3-Ethoxyphenyl)-3-methylphenyl]methyl]piperazin-1-yl]-N-(3,3,3-trifluoropropylsulfonyl)benzamide]
0.0	0.0	–	–	–	CCOc1cccc(-c2cc(C(=O)N3CCN(c4ccc(C(=O)NS(C)(=O)=O)cc4)CC3)cc(C(F)(F)F)c2)c1 [Compound B2I039-01, 4-[4-[3-(3-Ethoxyphenyl)-5-(trifluoromethyl)benzoyl]piperazin-1-yl]-N-methylsulfonylbenzamide]
0.0	0.0	–	–	–	CCOc1cncc(C#Cc2cc(C(=O)N3CCN(c4ccc(C(=O)NS(=O)(=O)C(C)(C)C)cc4)CC3)cc(C(F)(F)F)c2)c1 [Compound B2L042-01, N-tert-Butylsulfonyl-4-[4-[3-[2-(5-ethoxypyridin-3-yl)ethynyl]-5-(trifluoromethyl)benzoyl]piperazin-1-yl]benzamide]
–	–	5.7	−5.1	–	CCOc1cccc(-c2cc(CN3CCN(c4ccc(C(=O)NS(=O)(=O)c5ccc(NCCSc6ccccc6)c(C(F)(F)F)c5)cc4)CC3)cc(OC(C)C)c2)c1 [Compound B2R057-01, 4-[4-[[3-(3-Ethoxyphenyl)-5-propan-2-yloxyphenyl]methyl]piperazin-1-yl]-N-[4-(2-phenylsulfanylethylamino)-3-(trifluoromethyl)phenyl]sulfonylbenzamide]
−1.0	1.4	–	–	–	CCOc1cncc(-c2ccc(CN3CCN(c4ccc(C(=O)NS(=O)(=O)C(C)(C)C)nn4)CC3)cc2C)c1 [Compound B2L074-01]
0.0	0.0	–	–	–	CCOc1cccc(-c2ccc(CN3CCN(c4ccc(C(=O)NS(=O)(=O)C(C)(C)C)nn4)CC3)cc2F)c1 [Compound B2L077-01, N-tert-Butylsulfonyl-6-[4-[4-(3-ethoxyphenyl)-3-fluorophenyl]methyl]piperazin-1-yllpyridazine-3-carboxamide]
0.0	0.0	–	–	–	CCOc1cncc(-c2cc(CN3CCN(c4ccc(C(=O)NS(=O)(=O)C(C)(C)C)cc4)CC3)cc(OC(F)(F)F)c2)c1 [Compound B2L064-01]
–	–	0.0	−7.4	–	CCOc1cncc(-c2ccc(CN3CCN(c4ccc(C(=O)NS(=O)(=O)c5ccc(NCCSc6ccccc6)c(C(F)(F)F)c5)cc4)CC3)cc2F)c1 [Compound B2R052-01, 4-[4-[[4-(5-Ethoxypyridin-3-yl)-3-fluorophenyl]methyl]piperazin-1-yl]-N-[4-(2-phenylsulfanylethylamino)-3-(trifluoromethyl)phenyl]sulfonylbenzamide]
0.9	0.0	–	–	–	CCOc1cccc(-c2cc(CN3CCN(c4ccc(C(=O)NS(C)(=O)=O)cc4)CC3)cc(OC(F)(F)F)c2)c1 [Compound B2I063-01, 4-[4-[[3-(3-Ethoxyphenyl)-5-(trifluoromethoxy)phenyl]methyl]piperazin-1-yl]-N-methylsulfonylbenzamide]
–	–	0.0	0.0	–	CCOc1cccc(-c2ccc(CN3CCN(c4ccc(C(=O)NS(=O)(=O)CCC(F)(F)F)nn4)CC3)cc2F)c1 [Compound B2N077-01, 6-[4-[[4-(3-Ethoxyphenyl)-3-fluorophenyl]methyl]piperazin-1-yl]-N-(3,3,3-trifluoropropylsulfonyl)pyridazine-3-carboxamide]
–	–	0.0	0.0	–	CCOc1cncc(-c2cc(CN3CCN(c4ccc(C(=O)NS(=O)(=O)CCC(F)(F)F)nn4)CC3)cc(OC(C)C)c2)c1 [Compound B2N084-01]
–	–	–	–	ASMS ratio (%) n = 2 [5]: −2.2%	CCOc1cccc(-c2ccc(CN3CCN(c4ccc(C(=O)Nc5ccc(OC)cc5)nn4)CC3)c3ccccc23)c1 [Compound B1O091-01, 6-[4-[[4-(3-Ethoxyphenyl)naphthalen-1-yl]methyl]piperazin-1-yl]-N-(4-methoxyphenyl)pyridazine-3-carboxamide]
0.0	0.0	–	–	–	CCOc1cncc(-c2ccc(CN3CCN(c4ccc(C(=O)NS(C)(=O)=O)nn4)CC3)cc2F)c1 [Compound B2I078-01, 6-[4-[[4-(5-Ethoxypyridin-3-yl)-3-fluorophenyl]methyl]piperazin-1-yl]-N-methylsulfonylpyridazine-3-carboxamide]
0.8	1.4	–	–	–	CCOc1cccc(-c2ccc(CN3CCN(c4ccc(C(=O)NS(C)(=O)=O)cc4)CC3)cc2C)c1 [Compound B2I047-01, 4-[4-[[4-(3-Ethoxyphenyl)-3-methylphenyl]methyl]piperazin-1-yl]-N-methylsulfonylbenzamide]
–	–	−0.3	−3.8	–	CCOc1cccc(-c2cc(CN3CCN(c4ccc(C(=O)NS(=O)(=O)CCC(F)(F)F)cc4)CC3)cc(OC(F)(F)F)c2)c1 [Compound B2N063-01, 4-[4-[[3-(3-Ethoxyphenyl)-5-(trifluoromethoxy)phenyl]methyl]piperazin-1-yl]-N-(3,3,3-trifluoropropylsulfonyl)benzamide]
–	–	0.0	0.0	–	CCOc1cccc(-c2ccccc2CCC(=O)N2CCN(c3ccc(C(=O)NS(=O)(=O)CCC(F)(F)F)cc3)CC2)c1 [Compound B2N033-01, 4-[4-[3-[2-(3-Ethoxyphenyl)phenyl]propanoyl]piperazin-1-yl]-N-(3,3,3-trifluoropropylsulfonyl)benzamide]
0.0	0.0	–	–	–	CCOc1cncc(C#Cc2cc(C(=O)N3CCN(c4ccc(C(=O)NS(=O)(=O)C(C)(C)C)nn4)CC3)cc(C(F)(F)F)c2)c1 [Compound B2L020-01, N-tert-Butylsulfonyl-6-[4-[3-[2-(5-ethoxypyridin-3-yl)ethynyl]-5-(trifluoromethyl)benzoyl]piperazin-1-yl]pyridazine-3-carboxamide]
–	–	15.8	11.7	–	CCOc1cncc(-c2ccc(CN3CCN(c4ccc(C(=O)NS(=O)(=O)c5ccc(NCCSc6ccccc6)c(C(F)(F)F)c5)nn4)CC3)cc2F)c1 [Compound B2R078-01, 6-[4-[[4-(5-Ethoxypyridin-3-yl)-3-fluorophenyl]methyl]piperazin-1-yl]-N-[4-(2-phenylsulfanylethylamino)-3-(trifluoromethyl)phenyl]sulfonylpyridazine-3-carboxamide]
–	–	–	–	ASMS ratio (%) n = 1 (AS-MS, mixture of 1200 compounds/well, Bcl-2 protein, replicate n = 1): −1.9%; ASMS ratio (%) n = 2 [5]: 2.0%	CCCNC(=O)c1ccc(N2CCN(C(=O)c3ccc(-c4cccc(OCC)c4)c(C)c3)CC2)nn1 [Compound B1M003-01]
–	–	0.0	0.0	–	CCOc1cccc(C#Cc2ccccc2CN2CCN(c3ccc(C(=O)NS(=O)(=O)CCC(F)(F)F)nn3)CC2)c1 [Compound B2N095-01]
0.8	1.4	–	–	–	CCOc1cccc(-c2ccc(C(C)N3CCN(c4ccc(C(=O)NS(C)(=O)=O)cc4)CC3)cc2)c1 (centres unmarked) [Compound B2I097-01, 4-[4-[1-[4-(3-Ethoxyphenyl)phenyl]ethyl]piperazin-1-yl]-N-methylsulfonylbenzamide]
–	–	0.0	0.0	–	CCOc1cncc(-c2ccc(C(C)N3CCN(c4ccc(C(=O)NS(=O)(=O)C(C)(C)C)cc4)CC3)c(F)c2)c1 (centres unmarked) [Compound B2L100-01, N-tert-Butylsulfonyl-4-[4-[1-[4-(5-ethoxypyridin-3-yl)-2-fluorophenyl]ethyl]piperazin-1-yl]benzamide]
–	–	0.0	0.0	–	CCOc1cccc(-c2ccc(CN3CCN(c4ccc(C(=O)NS(=O)(=O)CCC(F)(F)F)nn4)CC3)cc2C)c1 [Compound B2N073-01, 6-[4-[[4-(3-Ethoxyphenyl)-3-methylphenyl]methyl]piperazin-1-yl]-N-(3,3,3-trifluoropropylsulfonyl)pyridazine-3-carboxamide]
